From US20230203081A1, “LINCOSAMIDE ANTIBIOTICS AND USES THEREOF” (President and Fellows of Harvard College, priority 2020, published 2023)
Converted amounts (≈) assume the structure as drawn.

Legend:
Format in all cases: cell-based
S. aureus BAA 977 iErmA = test: microbe, parasite or virus in culture; conditions: Staphylococcus aureus, BAA-977 / MRSA
Procedure, shortened: (§1)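 Inoculum for broth microdilution was 5×10^5 CFU/mL final, prepared from overnight 35° C blood-agar subcultures (separate handling for streptococcal and anaerobic strains); MICs read by CLSI broth microdilution or agar dilution.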

S. aureus MP-549 msrA = test: microbe, parasite or virus in culture; conditions: Staphylococcus aureus, MP549MSRA; S. aureus HAV#032, MP-549; MSR(A); read-out: MIC
Procedure, shortened: as §1

[1] = test system: broad panel of different clinical isolates; test: microbe, parasite or virus in culture
Procedure, shortened: as §1

E. faecalis ATCC 29212 = test: MIC (broth microdilution or agar dilution, CLSI); conditions: Enterococcus faecalis, ATCC29212, E. faecalis HAV#005, ATCC 29212; read-out: MIC
Procedure, shortened: as §1

K. oxytoca Clinical = test: MIC (broth microdilution or agar dilution, CLSI); conditions: Klebsiella oxytoca; K. oxytoca HAV#450; Clinical; read-out: MIC
Procedure, shortened: as §1

S. aureus ATCC 29213 = test: MIC (broth microdilution or agar dilution, CLSI); conditions: Staphylococcus aureus, ATCC29213, S. aureus HAV#001, ATCC 29213, MP-549; read-out: MIC
Procedure, shortened: as §1

S. aureus ATCC 700699 = test: MIC (broth microdilution or agar dilution, CLSI); conditions: Staphylococcus aureus; S. aureus HAV#202, ATCC 700699 (VISA); read-out: MIC
Procedure, shortened: as §1

[2] = test system: S. aureus ATCC BAA-1707 (MRSA); test: MIC (broth microdilution or agar dilution, CLSI); conditions: Staphylococcus aureus; S. aureus HAV#016, ATCC BAA-1707; MRSA; read-out: MIC
Procedure, shortened: as §1

S. aureus MMX 3035 cErmA = test: MIC (broth microdilution or agar dilution, CLSI); conditions: Staphylococcus aureus, MMX3035CERMA; S. aureus HAV#031, MMX 3035; cErmA; read-out: MIC
Procedure, shortened: as §1

S. aureus hVISA = test: MIC (broth microdilution or agar dilution, CLSI); conditions: Staphylococcus aureus; S. aureus HAV#204, hVISA; read-out: MIC
Procedure, shortened: as §1

S. pneumoniae ATCC 49619 = test: MIC (broth microdilution or agar dilution, CLSI); conditions: Streptococcus pneumoniae, ATCC49619, S. pneumoniae HAV#003, ATCC 49619; read-out: MIC
Procedure, shortened: as §1

[3] = test system: S. pneumoniae MMX 3028 cErmB; test: MIC (broth microdilution or agar dilution, CLSI); conditions: Streptococcus pneumoniae, MMX3028CERMB; S. pneumoniae HAV#033; MMX 3028, cErmB; read-out: MIC
Procedure, shortened: as §1

[4] = test system: S. pneumoniae MMX 3031 cMefA; test: MIC (broth microdilution or agar dilution, CLSI); conditions: Streptococcus pneumoniae, MMX3031CMEFA, S. pneumoniae HAV#034; MMX 3031, cMefA; read-out: MIC
Procedure, shortened: as §1

S. pyogenes ATCC 19615 = test: MIC (broth microdilution or agar dilution, CLSI); conditions: Streptococcus pyogenes, ATCC19615, S. pyogenes HAV#004, ATCC 19615; read-out: MIC
Procedure, shortened: as §1

[5] = test system: S. pyogenes MMX 946; cErmB; test: MIC (broth microdilution or agar dilution, CLSI); conditions: Streptococcus pyogenes; S. pyogenes HAV#035, MMX 946; cErmB, mac-resistant; read-out: MIC
Procedure, shortened: as §1

SMILES: C[C@H]1c2cccc(O)c2C(=O)C2=C(O)[C@]3(O)C(=O)C(C(N)=O)=C(O)[C@@H](N(C)C)[C@@H]3[C@@H](O)[C@@H]21 [Doxycycline]
- MIC (S. aureus BAA 977 iErmA): 0.25 µg/mL (≈ 0.563 µM)
- MIC (S. aureus MP-549 msrA): 8 µg/mL (≈ 18 µM)
- MIC ([1]; Acinetobacter baumannii, A. baumannii HAV#651, Clinical): 0.125 µg/mL (≈ 0.281 µM)
- MIC ([1]; Acinetobacter baumannii, A. baumannii HAV#652 Clinical): 0.5 µg/mL (≈ 1.13 µM)
- MIC ([1]; Acinetobacter baumannii, A. baumannii HAV#653, Clinical): 0.125 µg/mL (≈ 0.281 µM)
- MIC ([1]; Acinetobacter baumannii, A. baumannii HAV#654, Clinical): < 0.06 µg/mL
- MIC ([1]; Acinetobacter baumannii, A. baumannii HAV#655, Clinical): 0.5 µg/mL (≈ 1.13 µM)
- MIC ([1]; Acinetobacter baumannii, A. baumannii HAV#656, Clinical): 32 µg/mL (≈ 72 µM)
- MIC ([1]; Acinetobacter baumannii, A. baumannii HAV#657, Clinical): 0.5 µg/mL (≈ 1.13 µM)
- MIC ([1]; Acinetobacter baumannii, A. baumannii HAV#658, Clinical): 0.06 µg/mL (≈ 0.135 µM)
- MIC ([1]; Acinetobacter baumannii, A. baumannii HAV#659, Clinical): 0.5 µg/mL (≈ 1.13 µM)
- MIC ([1]; Acinetobacter baumannii, A. baumannii HAV#660, Clinical): 1 µg/mL (≈ 2.25 µM)
- MIC ([1]; Acinetobacter baumannii, A. baumannii HAV#661, Clinical): 0.125 µg/mL (≈ 0.281 µM)
- MIC ([1]; Acinetobacter baumannii, A. baumannii HAV#662, Clinical): 0.25 µg/mL (≈ 0.563 µM)
- MIC ([1]; Acinetobacter baumannii, A. baumannii HAV#663, Clinical): 0.125 µg/mL (≈ 0.281 µM)
- MIC ([1]; Acinetobacter baumannii, A. baumannii HAV#664, Carbapenem R): 2 µg/mL (≈ 4.5 µM)
- MIC ([1]; Enterococcus faecalis, E. faecalis HAV#602, Clincal): 0.25 µg/mL (≈ 0.563 µM)
- MIC ([1]; Enterococcus faecalis, E. faecalis HAV#607, Clinical): 1 µg/mL (≈ 2.25 µM)
- MIC ([1]; Enterococcus faecalis, E. faecalis HAV#608, Clinical): 0.5 µg/mL (≈ 1.13 µM)
- MIC ([1]; Enterococcus faecalis, E. faecalis HAV#609, Clinical): 8 µg/mL (≈ 18 µM)
- MIC ([1]; Enterococcus faecalis, E. faecalis HAV#610, Clinical): 0.5 µg/mL (≈ 1.13 µM)
- MIC ([1]; Enterococcus faecalis, S. faecalis 5074, Line R): 64 µg/mL (≈ 144 µM)
- MIC ([1]; Enterococcus faecalis, VRE, E. faecalis HAV#251, Clinical VRE): 0.125 µg/mL (≈ 0.281 µM)
- MIC ([1]; Enterococcus faecalis, VRE, E. faecalis HAV#606, Clinical): 16 µg/mL (≈ 36 µM)
- MIC ([1]; Enterococcus faecium, E. faecium HAV#317, Clinical): 0.25 µg/mL (≈ 0.563 µM)
- MIC ([1]; Enterococcus faecium, E. faecium HAV#324, Clinical): 0.25 µg/mL (≈ 0.563 µM)
- MIC ([1]; Enterococcus faecium, E. faecium HAV#327, Clinical): 0.25 µg/mL (≈ 0.563 µM)
- MIC ([1]; Enterococcus faecium, E. faecium HAV#328, Clinical): 0.25 µg/mL (≈ 0.563 µM)
- MIC ([1]; Enterococcus faecium, E. faecium HAV#329, Clinical): 0.25 µg/mL (≈ 0.563 µM)
- MIC ([1]; Enterococcus faecium, VRE, E. faecium HAV#318, VanA): 4 µg/mL (≈ 9 µM)
- MIC ([1]; Enterococcus faecium, VRE, E. faecium HAV#319, Line R & Vanco R): 16 µg/mL (≈ 36 µM)
- MIC ([1]; Enterococcus faecium, VRE, E. faecium HAV#320, Clinical): > 128 µg/mL
- MIC ([1]; Escherichia coli, E. coli HAV#503, Clinical): 32 µg/mL (≈ 72 µM)
- MIC ([1]; Escherichia coli, E. coli HAV#511, Clinical): 2 µg/mL (≈ 4.5 µM)
- MIC ([1]; Escherichia coli, E. coli HAV#512, Clinical): 2 µg/mL (≈ 4.5 µM)
- MIC ([1]; Escherichia coli, E. coli HAV#513, Clinical): 32 µg/mL (≈ 72 µM)
- MIC ([1]; Escherichia coli, E. coli HAV#514, Clinical): 2 µg/mL (≈ 4.5 µM)
- MIC ([1]; Escherichia coli, E. coli HAV#516, ESBL-producing): 8 µg/mL (≈ 18 µM)
- MIC ([1]; Haemophilus influenzae, ATCC9007, H. influenzae HAV#376, ATCC-9007): 0.25 µg/mL (≈ 0.563 µM)
- MIC ([1]; Klebsiella pneumoniae, K. pneumoniae HAV#404, Clinical): 4 µg/mL (≈ 9 µM)
- MIC ([1]; Klebsiella pneumoniae, K. pneumoniae HAV#405, Clinical): 2 µg/mL (≈ 4.5 µM)
- MIC ([1]; Klebsiella pneumoniae, K. pneumoniae HAV#406, Clinical): 2 µg/mL (≈ 4.5 µM)
- MIC ([1]; Klebsiella pneumoniae, K. pneumoniae HAV#407, Clinical): 32 µg/mL (≈ 72 µM)
- MIC ([1]; Klebsiella pneumoniae, K. pneumoniae HAV#408, Clinical): 32 µg/mL (≈ 72 µM)
- MIC ([1]; Klebsiella pneumoniae, K. pneumoniae HAV#409, ESBL-producing): 16 µg/mL (≈ 36 µM)
- MIC ([1]; Staphylococcus aureus, MRSA, S. aureus HAV#0107, MRSA Col(Colindale, England)): 64 µg/mL (≈ 144 µM)
- MIC ([1]; Staphylococcus aureus, MRSA, S. aureus HAV#218, Line R): 16 µg/mL (≈ 36 µM)
- MIC ([1]; Staphylococcus aureus, MRSA, S. aureus HAV#220, Line R): 8 µg/mL (≈ 18 µM)
- MIC ([1]; Staphylococcus aureus, MSSA, S. aureus HAV#219, Line R): 1 µg/mL (≈ 2.25 µM)
- MIC ([1]; Staphylococcus aureus, S. aureus HAV#051, mecA, norA, spcl, ermA, aad1, aac6′-aph2″): 0.5 µg/mL (≈ 1.13 µM)
- MIC ([1]; Staphylococcus aureus, S. aureus HAV#052, mecA, norA, fosB, blaZ): 0.5 µg/mL (≈ 1.13 µM)
- MIC ([1]; Staphylococcus aureus, S. aureus HAV#053 mecA, norA, fosB): 0.5 µg/mL (≈ 1.13 µM)
- MIC ([1]; Staphylococcus aureus, S. aureus HAV#054, mecA, norA, spcl, aad1, fosB, ermA, aac6′-aph2″, blaZ): 2 µg/mL (≈ 4.5 µM)
- MIC ([1]; Staphylococcus aureus, S. aureus HAV#211, Clinical): 4 µg/mL (≈ 9 µM)
- MIC ([1]; Staphylococcus aureus, S. aureus HAV#212, Clinical): 0.25 µg/mL (≈ 0.563 µM)
- MIC ([1]; Staphylococcus aureus, S. aureus HAV#213, Clinical): 0.125 µg/mL (≈ 0.281 µM)
- MIC ([1]; Staphylococcus aureus, S. aureus HAV#214, Clinical): 0.25 µg/mL (≈ 0.563 µM)
- MIC ([1]; Staphylococcus aureus, S. aureus HAV#215, Clinical): 0.25 µg/mL (≈ 0.563 µM)
- MIC ([1]; Staphylococcus aureus, S. aureus HAV#216, Clinical, cfr): 0.25 µg/mL (≈ 0.563 µM)
- MIC ([1]; Staphylococcus aureus, S. aureus HAV#217, cfr): 4 µg/mL (≈ 9 µM)
- MIC ([1]; Staphylococcus aureus, VISA, S. aureus HAV#203, Clinical (VISA)): 8 µg/mL (≈ 18 µM)
- MIC ([1]; Staphylococcus epidermidis, S. epidermidis HAV# 275 Clinical, cfr): 1 µg/mL (≈ 2.25 µM)
- MIC ([1]; Staphylococcus epidermidis, S. epidermidis HAV# 276, cfr): 2 µg/mL (≈ 4.5 µM)
- MIC ([1]; Staphylococcus epidermidis, S. epidermidis HAV#277, Line R): 8 µg/mL (≈ 18 µM)
- MIC ([1]; Staphylococcus epidermidis, S. epidermidis HAV#278 Line R): 4 µg/mL (≈ 9 µM)
- MIC ([1]; Staphylococcus epidermidis, S. epidermidis HAV#279, Line R): 32 µg/mL (≈ 72 µM)
- MIC ([1]; Staphylococcus haemolyticus, S. haemolyticus 5052, Line R & Methicillin R): 4 µg/mL (≈ 9 µM)
- MIC ([1]; Streptococcus pneumoniae, ATCC700673, S. pneumoniae HAV#352, ATCC 700673, MDR): 4 µg/mL (≈ 9 µM)
- MIC ([1]; Streptococcus pneumoniae, ATCCBAA255, S. pneumoniae HAV#354, ATCC-BAA-255): 0.25 µg/mL (≈ 0.563 µM)
- MIC ([1]; Streptococcus pneumoniae, ATCCBAA334, S. pneumoniae HAV#353, ATCC-BAA-334): 0.25 µg/mL (≈ 0.563 µM)
- MIC ([1]; Streptococcus pneumoniae, S. pneumoniae HAV#356, Clinical): 2 µg/mL (≈ 4.5 µM)
- MIC ([1]; Streptococcus pneumoniae, S. pneumoniae HAV#358, Clinical): 0.25 µg/mL (≈ 0.563 µM)
- MIC (E. faecalis ATCC 29212): 4 µg/mL (≈ 9 µM)
- MIC (K. oxytoca Clinical): 8 µg/mL (≈ 18 µM)
- MIC (S. aureus ATCC 29213): 0.25 µg/mL (≈ 0.563 µM)
- MIC (S. aureus ATCC 700699): 16 µg/mL (≈ 36 µM)
- MIC [2]: 0.25 µg/mL (≈ 0.563 µM)
- MIC (S. aureus MMX 3035 cErmA): 0.25 µg/mL (≈ 0.563 µM)
- MIC (S. aureus hVISA): 16 µg/mL (≈ 36 µM)
- MIC (S. pneumoniae ATCC 49619): 0.125 µg/mL (≈ 0.281 µM)
- MIC [3]: 1 µg/mL (≈ 2.25 µM)
- MIC [4]: 0.125 µg/mL (≈ 0.281 µM)
- MIC (S. pyogenes ATCC 19615): 0.125 µg/mL (≈ 0.281 µM)
- MIC [5]: 0.125 µg/mL (≈ 0.281 µM)
